The values below come from US10202373B2, “Heteroaryls and uses thereof” (MILLENNIUM PHARMACEUTICALS, INC., priority 2014, dated 2019).

The experiment has as its target human VPS34 (Homo sapiens (Human), UniProt Q8NEB9). Kind of experiment: Human VPS34 enzyme assay (Adapta TR-FRET). The class given is biochemical. To be noted: for inhibition at 1.11 µM: 1 h, inhibition of VPS34 at a 1.11 μM concentration, read-out: Percent Inhibition; for IC50: human VPS34 enzyme assay, IC50 ranges. How it is done: VPS34 (accession number GB:BC033004) was cloned into pDEST20-Thombin as N-terminal GST tagged fusion proteins using the Gateway system (Invitrogen, catalog#11804-013). The sequences were verified before recombinant protein expression using the Baculovirus Expression System with Gateway® Technology. For expression VPS34 was infected at 1 MOI in SF9 cells and harvested 72 hours post infection. For purification, VPS34 is purified by Glutathione Sepharose 4 Fast Flow (GE Healthcare #17-5132-03) followed by HiTrap Q (GE Healthcare #17-1153-01). Human VPS34 Enzyme Assay Method 100 nL compounds in DMSO are added to wells of a 384 well microtitre plate (Greiner 780076). At room temperature: 5 ul VPS34 reaction buffer (Invitrogen Assay Buffer Q (diluted 1 in 5 with nanopure water) plus 2 mM DTT and 2 mM MnCl2) containing ATP (20 uM, Promega) and 200 uM PI-PS substrate (Invitrogen PV5122) is added followed immediately by 5 ul VPS34 reaction buffer (as above) containing VPS34 (5 nM, Millennium Protein Sciences Group) and the mixture is incubated with shaking at room temperature for 1 hour. Then 5 ul […]-detect mix (as per Invitrogen Adapta Assay kit (PV5009) instructions (contains kinase quench buffer, TR-FRET buffer, Adapta Eu anti-ADP antibody and Alexa Fluor 647 ADP tracer)) is added to quench the reaction. The plates are then incubated for 30 minutes at room temperature with shaking and then read on a BMG PheraStar Plus reader. For the assay methods described above, test compound percent inhibition, at various concentrations, is calculated relative to control (DMSO and EDTA) treated samples. Compound concentration versus percent inhibition curves are fitted to generate IC50 values. One skilled in the art will appreciate that the values generated either as percentage inhibition at a single concentration or IC50 values are subject to experimental variation. […] Additionally, compounds of the invention that inhibit VPS34 are described with the following IC50 ranges: […]

human VPS34, sequence (Q8NEB9 whole entry, the tested form may be a part): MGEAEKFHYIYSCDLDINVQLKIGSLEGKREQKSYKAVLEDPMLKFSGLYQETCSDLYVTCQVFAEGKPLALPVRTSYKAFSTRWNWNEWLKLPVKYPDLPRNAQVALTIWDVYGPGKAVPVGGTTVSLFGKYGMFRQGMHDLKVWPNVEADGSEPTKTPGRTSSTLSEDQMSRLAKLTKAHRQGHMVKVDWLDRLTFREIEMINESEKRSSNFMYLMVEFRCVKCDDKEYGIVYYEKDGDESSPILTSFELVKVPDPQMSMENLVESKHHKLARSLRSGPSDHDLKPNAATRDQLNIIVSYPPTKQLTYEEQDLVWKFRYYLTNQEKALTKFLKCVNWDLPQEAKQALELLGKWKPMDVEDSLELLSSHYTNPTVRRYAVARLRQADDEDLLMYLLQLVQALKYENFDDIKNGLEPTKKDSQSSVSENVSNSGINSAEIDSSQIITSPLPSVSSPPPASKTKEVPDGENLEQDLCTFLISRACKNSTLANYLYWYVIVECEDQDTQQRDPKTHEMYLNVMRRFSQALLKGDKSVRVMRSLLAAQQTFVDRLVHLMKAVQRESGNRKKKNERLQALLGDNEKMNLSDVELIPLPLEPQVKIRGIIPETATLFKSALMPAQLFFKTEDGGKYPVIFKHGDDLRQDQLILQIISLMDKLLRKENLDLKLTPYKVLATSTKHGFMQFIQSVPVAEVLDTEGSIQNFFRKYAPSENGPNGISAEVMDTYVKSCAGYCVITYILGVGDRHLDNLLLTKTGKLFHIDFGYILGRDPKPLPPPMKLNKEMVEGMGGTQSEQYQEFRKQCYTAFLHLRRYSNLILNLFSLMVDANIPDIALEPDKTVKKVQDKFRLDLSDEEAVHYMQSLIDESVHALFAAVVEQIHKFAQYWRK

Turning to `COC(=O)Nc1cc(-c2cncc3c2ccn3S(C)(=O)=O)ccn1` [Compound I-29, methyl {4-[1-(methylsulfonyl)-1H-pyrrolo[2,3-c]pyridin-4-yl]pyridin-2-yl}carbamate], the inhibition at 1.11 µM is more than 99% and the IC50 was in the range of 10 to 50 nM.
On the same counts, the results for `COC(=O)Nc1cc(-c2cncc3c2ccn3S(=O)(=O)C2CC2)ccn1` [Compound I-30, methyl {4-[1-(cyclopropylsulfonyl)-1H-pyrrolo[2,3-c]pyridin-4-yl]pyridin-2-yl}carbamate] are 99% and 10 to 50 nM.
As for `CC(=O)Nc1cc(-c2cncc3c2cc(C)n3S(=O)(=O)c2ccccc2)ccn1` [Compound I-31, N-{4-[2-methyl-1-(phenylsulfonyl)-1H-pyrrolo[2,3-c]pyridin-4-yl]pyridin-2-yl}acetamide], the inhibition at 1.11 µM is more than 99% and the IC50 fell in the range of 10 to 50 nM.
Regarding `CS(=O)(=O)n1ccc2c(-c3ccnc(N)c3)cncc21` [Compound I-32, 4-[1-(methylsulfonyl)-1H-pyrrolo[2,3-c]pyridin-4-yl]pyridin-2-amine], the inhibition at 1.11 µM came to 30% and the IC50 is more than 100 nM.
As to `CC(=O)Nc1cc(-c2cncc3c2ccn3S(=O)(=O)N(C)C)ccn1` [Compound I-33, N-{4-[1-(dimethylsulfamoyl)-1H-pyrrolo[2,3-c]pyridin-4-yl]pyridin-2-yl}acetamide], the inhibition at 1.11 µM was more than 99% and the 50% inhibitory concentration (IC50) is less than 10 nM.
On the same counts, the results for `CC(=O)Nc1cc(-c2cnc(C)c3c2ccn3S(=O)(=O)c2ccccc2C)ccn1` [Compound I-34, N-(4-{7-methyl-1-[(2-methylphenyl)sulfonyl]-1H-pyrrolo[2,3-c]pyridin-4-yl}pyridin-2-yl)acetamide] are more than 99% and 10 to 50 nM.
On the same counts, the results for `CC(=O)Nc1cc(-c2cnc(C)c3c2ccn3CC2CC2)ccn1` [Compound I-36, N-{4-[1-(cyclopropylmethyl)-7-methyl-1H-pyrrolo[2,3-c]pyridin-4-yl]pyridin-2-yl}acetamide] are 79% and more than 100 nM.
The corresponding values for `CC(=O)Nc1cc(-c2cncc3c2ccn3S(=O)(=O)C2CC2)ccn1` [Compound I-37, N-{4-[1-(cyclopropylsulfonyl)-1H-pyrrolo[2,3-c]pyridin-4-yl]pyridin-2-yl}acetamide] are more than 99% and less than 10 nM.
`COC(=O)Nc1cc(-c2cnc(C)c3c2ccn3S(C)(=O)=O)ccn1` [Compound I-38, methyl {4-[7-methyl-1-(methylsulfonyl)-1H-pyrrolo[2,3-c]pyridin-4-yl]pyridin-2-yl}carbamate]: the inhibition at 1.11 µM worked out at 99% and the IC50 was in the range of 10 to 50 nM.
On the same counts, the results for `CC(=O)Nc1cc(-c2cncc3c2ccn3S(=O)(=O)c2ccccc2)ccn1` [Compound I-39, N-{4-[1-(phenylsulfonyl)-1H-pyrrolo[2,3-c]pyridin-4-yl]pyridin-2-yl}acetamide] are more than 99% and less than 10 nM.
On the same counts, the results for `CC(=O)Nc1cc(-c2cnc(CN)c3c2ccn3S(=O)(=O)C2CC2)ccn1` [Compound I-41, N-{4-[7-(aminomethyl)-1-(cyclopropylsulfonyl)-1H-pyrrolo[2,3-c]pyridin-4-yl]pyridin-2-yl}acetamide] are more than 99% and 10 to 50 nM.
The corresponding values for `CCOC(=O)Nc1cc(-c2cnc(C)c3c2ccn3S(=O)(=O)C2CC2)ccn1` [Compound I-42, ethyl {4-[1-(cyclopropylsulfonyl)-7-methyl-1H-pyrrolo[2,3-c]pyridin-4-yl]pyridin-2-yl}carbamate] are more than 99% and less than 10 nM.
Consider `COC(=O)Nc1cc(-c2cnc(C)c3c2ccn3S(=O)(=O)C2CC2)ccn1` [Compound I-43, methyl {4-[1-(cyclopropylsulfonyl)-7-methyl-1H-pyrrolo[2,3-c]pyridin-4-yl]pyridin-2-yl}carbamate], for which the inhibition at 1.11 µM is more than 99% and the IC50 is less than 10 nM.
On the same counts, the results for `CC(=O)Nc1cc(-c2cnc(C)c3c2ccn3S(=O)(=O)C2CC2)ccn1` [Compound I-44, N-{4-[1-(cyclopropylsulfonyl)-7-methyl-1H-pyrrolo[2,3-c]pyridin-4-yl]pyridin-2-yl}acetamide] are more than 99% and 10 to 50 nM.
On the same counts, the results for `CC(=O)Nc1cc(-c2cnc(C)c3c2ccn3S(C)(=O)=O)ccn1` [Compound I-45, N-{4-[7-methyl-1-(methylsulfonyl)-1H-pyrrolo[2,3-c]pyridin-4-yl]pyridin-2-yl}acetamide] are more than 99% and 10 to 50 nM.
On the same counts, the results for `CC(=O)Nc1cc(-c2cnc(C)c3c2c(F)cn3S(C)(=O)=O)ccn1` [Compound I-46, N-{4-[3-fluoro-7-methyl-1-(methylsulfonyl)-1H-pyrrolo[2,3-c]pyridin-4-yl]pyridin-2-yl}acetamide] are more than 99% and 10 to 50 nM.
Consider `CCOC(=O)Nc1cc(-c2cnc(C)c3c2ccn3S(=O)(=O)c2ccccc2)ccn1` [Compound I-47, ethyl {4-[7-methyl-1-(phenylsulfonyl)-1H-pyrrolo[2,3-c]pyridin-4-yl]pyridin-2-yl}carbamate], for which the inhibition at 1.11 µM was more than 99% and the IC50 lay in the range of 10 to 50 nM.
As for `Cc1ncc(-c2ccnc(NC(=O)CO)c2)c2ccn(S(=O)(=O)C3CC3)c12` [Compound I-48, N-{4-[1-(cyclopropylsulfonyl)-7-methyl-1H-pyrrolo[2,3-c]pyridin-4-yl]pyridin-2-yl}-2-hydroxyacetamide], the inhibition at 1.11 µM was more than 99% and the IC50 was in the range of 10 to 50 nM.
The corresponding values for `O=S(=O)(C1CC1)n1ccc2c(-c3ccnc(Nc4ccncn4)c3)cncc21` [Compound I-49, N-{4-[1-(cyclopropylsulfonyl)-1H-pyrrolo[2,3-c]pyridin-4-yl]pyridin-2-yl}pyrimidin-4-amine] are 88% and 10 to 50 nM.
On to `c1cc(Nc2cc(-c3cncc4[nH]ccc34)ccn2)ncn1` [Compound I-50, N-[4-(1H-pyrrolo[2,3-c]pyridin-4-yl)pyridin-2-yl]pyrimidin-4-amine], for which the inhibition at 1.11 µM worked out at 82% and the IC50 is 10 to 50 nM.
Turning to `Cc1nccc(Nc2cc(-c3cnc(C)c4[nH]ccc34)ccn2)n1` [Compound I-51, 2-methyl-N-[4-(7-methyl-1H-pyrrolo[2,3-c]pyridin-4-yl)pyridin-2-yl]pyrimidin-4-amine], the inhibition at 1.11 µM was determined as 91% and the IC50 was 10 to 50 nM.
